{"source": "patent US20060089391A1", "about": "“Treatment of cancer in pediatric patients” (priority 2004, published 2006)", "key": {"neuroblastoma": {"test_system": "neuroblastoma", "assay": "Clinical response in pediatric patients with neuroblastoma", "assay_type": "in vivo, human", "from_the_text": "Patients (n=19) with neuroblastoma have experienced time-to-disease progresson with a median progression free survival (FPS) of 20 weeks."}, "[1]": {"assay": "Pharmacokinetic profiles of pediatric patients after oral dosing", "assay_type": "in vivo, human", "settings": "for area under the plasma concentration time curve / time of maximum plasma concentration: immediate release composition"}, "[2]": {"target": "biotinylated bovine brain tubulin", "settings": "competition of [3H]colchicine"}, "[3]": {"settings": "one 75 mg per mm^2 per day oral dose for 21 days"}, "[4]": {"settings": "one 100 mg per mm^2 per day oral dose for 21 days"}, "[5]": {"settings": "one 130 mg per mm^2 per day oral dose for 21 days"}, "[6]": {"settings": "one 165 mg per mm^2 per day oral dose for 21 days"}, "[7]": {"settings": "one 200 mg per mm^2 per day oral dose for 21 days"}, "[8]": {"settings": "one 250 mg per mm^2 per day oral dose for 21 days"}}, "note": "Like-named read-outs stand apart in the source and are kept apart here."}
{"smiles": "COc1ccc(S(=O)(=O)Nc2cccnc2Nc2ccc(O)cc2)cc1", "note": "[ABT-751, N-(2-((4-hydroxyphenyl)amino)pyrid-3-yl)-4-methoxybenzenesulfonamide]", "values": [{"measurement": "clinical outcome of a single patient", "setting": "neuroblastoma; patient with neuroblastoma, 100 mg/mm^2/d on the daily x7 schedule", "value": "disease stabilization after 44 cycles"}, {"measurement": "median progression free survival (FPS)", "setting": "neuroblastoma; patients (n=19) with neuroblastoma", "value": 20, "unit": "weeks"}, {"measurement": "Tmax", "setting": "[1]; 250 mg/mm^2/d QD oral", "value": 2.0, "unit": "h"}, {"measurement": "Tmax", "setting": "[1]; human, in vivo, 200 QD oral, mean±SD, read-out: Tmax", "value": "3 ± 1.7", "unit": "h"}, {"measurement": "Cmax", "setting": "[1]; human, plasma, 75 QD oral, mean±SD", "value": "8000 ± 1700", "unit": "ng/mL"}, {"measurement": "Tmax", "setting": "[1]; human, plasma, 75 QD oral, mean±SD, read-out: Tmax", "value": "2.7 ± 0.6", "unit": "h"}, {"measurement": "Cmax", "setting": "[1]; human, plasma, 100 QD oral, mean±SD", "value": "10600 ± 3000", "unit": "ng/mL"}, {"measurement": "Tmax", "setting": "[1]; human, plasma, 100 QD oral, mean±SD, read-out: Tmax", "value": "1.9 ± 1", "unit": "h"}, {"measurement": "Cmax", "setting": "[1]; human, plasma, 130 QD oral, mean±SD", "value": "10800 ± 2900", "unit": "ng/mL"}, {"measurement": "Tmax", "setting": "[1]; human, plasma, 130 QD oral, mean±SD, read-out: Tmax", "value": "2.2 ± 0.8", "unit": "h"}, {"measurement": "Cmax", "setting": "[1]; human, plasma, 165 QD oral, mean±SD", "value": "13500 ± 4600", "unit": "ng/mL"}, {"measurement": "Tmax", "setting": "[1]; human, plasma, 165 QD oral, mean±SD, read-out: Tmax", "value": "3 ± 1.7", "unit": "h"}, {"measurement": "Cmax", "setting": "[1]; human, plasma, 200 QD oral, mean±SD", "value": "16900 ± 8100", "unit": "ng/mL"}, {"measurement": "Cmax", "setting": "[1]; human, plasma, 250 QD oral, mean±SD", "value": "23300 ± 6500", "unit": "ng/mL"}, {"measurement": "area under the plasma concentration time curve", "setting": "[1]; [3]", "value": "52000 ± 21000", "unit": "ng·h/mL"}, {"measurement": "time of maximum plasma concentration", "setting": "[1]; [3]", "value": "2.7 ± 0.6", "unit": "h"}, {"measurement": "area under the plasma concentration time curve", "setting": "[1]; [4]", "value": "60000 ± 19000", "unit": "ng·h/mL"}, {"measurement": "time of maximum plasma concentration", "setting": "[1]; [4]", "value": "1.9 ± 1", "unit": "h"}, {"measurement": "area under the plasma concentration time curve", "setting": "[1]; [5]", "value": "62000 ± 19000", "unit": "ng·h/mL"}, {"measurement": "time of maximum plasma concentration", "setting": "[1]; [5]", "value": "2.2 ± 0.8", "unit": "h"}, {"measurement": "area under the plasma concentration time curve", "setting": "[1]; [6]", "value": "90000 ± 27000", "unit": "ng·h/mL"}, {"measurement": "time of maximum plasma concentration", "setting": "[1]; [6]", "value": "3 ± 1.7", "unit": "h"}, {"measurement": "area under the plasma concentration time curve", "setting": "[1]; [7]", "value": "91000 ± 24000", "unit": "ng·h/mL"}, {"measurement": "time of maximum plasma concentration", "setting": "[1]; [7]", "value": "3 ± 1.7", "unit": "h"}, {"measurement": "area under the plasma concentration time curve", "setting": "[1]; [8]", "value": "129000 ± 23000", "unit": "ng·h/mL"}, {"measurement": "time of maximum plasma concentration", "setting": "[1]; [8]", "value": 2, "unit": "h"}, {"measurement": "Ki", "setting": "[2]", "value": 2600, "unit": "nM"}]}
{"smiles": "CC[C@]1(O)C[C@@H]2CN(CCc3c([nH]c4ccccc34)[C@@](C(=O)OC)(c3cc4c(cc3OC)N(C)[C@H]3[C@@](O)(C(=O)OC)[C@H](OC(C)=O)[C@]5(CC)C=CCN6CC[C@]43[C@@H]65)C2)C1", "note": "[vinblastine]", "values": [{"measurement": "Ki", "setting": "[2]", "value": "> 100000", "unit": "nM"}]}
